Source: patent US20250122218A1, “MODULATORS OF CYSTIC FIBROSIS TRANSMEMBRANE CONDUCTANCE REGULATOR” (Vertex Pharmaceuticals Incorporated, priority 2022, published 2025)

What follows are compounds tested against T1, CFTR in F508del/MF-HBE cells (Homo sapiens, UniProt P13569, DEL508-508) (assay: Ussing chamber assay of CFTR-mediated short-circuit currents (identification of potentiator compounds)). Conditions: potentiator incubated 18-24 hours at 37° C. in combination with 10 μM corrector, in the presence of 20% human serum, CFTR-mediated ISC.
T1 construct: human bronchial epithelial (HBE) cells derived from CF subjects heterozygous for F508del and a minimal function CFTR mutation; endogenous in cells; host or cells: primary human bronchial epithelial cells from CF subjects (F508del/MF-HBE)
Type: cell-based
Description: Ussing chamber experiments were performed using human bronchial epithelial (HBE) cells derived from CF subjects heterozygous for F508del and a minimal function CFTR mutation (F508del/MF-HBE) and cultured as previously described (Neuberger T, Burton B, Clark H, Van Goor F; Methods Mol. Biol. 2011:741:39-54). After four days the apical media was removed, and the cells were grown at an air liquid interface for >14 days prior to use.
To isolate the CFTR-mediated short-circuit (ISC) current, F508del/MF-HBE grown on Costar® Snapwell™ cell culture inserts were mounted in an Ussing chamber and the transepithelial ISC was measured under voltage-clamp recording conditions (Vhold=0 mV) at 37° C. The basolateral solution contained (in mM) 145 NaCl, 0.83 K2HPO4, 3.3 KH2PO4, 1.2 MgCl2, 1.2 CaCl2), 10 Glucose, 10 HEPES (pH adjusted to 7.4 with NaOH) and the apical solution contained (in mM) 145 NaGluconate, 1.2 MgCl2, 1.2 CaCl2), 10 glucose, 10 HEPES (pH adjusted to 7.4 with NaOH) and 30 μM amiloride to block the epithelial sodium channel. Forskolin (20 μM) was added to the apical surface to activate CFTR, followed by apical addition of a CFTR inhibitor cocktail consisting of BPO, GlyH-101 and CFTR inhibitor 172 (each at 20 μM final assay concentration) to specifically isolate CFTR currents. The CFTR-mediated ISC (μA/cm^2) for each condition was determined from the peak forskolin response to the steady-state current following inhibition.
The activity of the CFTR potentiator compounds on the CFTR-mediated ISC was determined in Ussing chamber studies as described above. The F508del/MF-HBE cell cultures were incubated with the potentiator compounds at a range of concentrations in combination with 10 μM (14S)-8-[3-(2-{dispiro[2.0.2.1]heptan-7-yl}ethoxy)-1H-pyrazol-1-yl]-12,12-dimethyl-2λ^6-thia-3,9,11,18,23-pentaazatetracyclo[17.3.1.111,14.05,10]tetracosa-1(22),5,7,9,19(23),20-hexaene-2,2,4-trione for 18-24 hours at 37° C. and in the presence of 20% human serum. The concentration of potentiator compounds and (14S)-8-[3-(2-{dispiro[2.0.2.1]heptan-7-yl}ethoxy)-1H-pyrazol-1-yl]-12,12-dimethyl-2λ^6-thia-3,9,11,18,23-pentaazatetracyclo[17.3.1.111,14.05,10]tetracosa-1(22),5,7,9,19(23),20-hexaene-2,2,4-trione used during the 18-24 hours incubations was kept constant throughout the Ussing chamber measurement of the CFTR-mediated ISC to ensure compounds were present throughout the entire experiment. The efficacy and potency of the putative F508del potentiators was compared to that of the known potentiator, ivacaftor (N-[2,4-bis(1,1-dimethylethyl)-5-hydroxyphenyl]-1,4-dihydro-4-oxoquinoline-3-carboxamide).

T1 sequence (P13569 with tags, fused parts or gaps DEL508-508): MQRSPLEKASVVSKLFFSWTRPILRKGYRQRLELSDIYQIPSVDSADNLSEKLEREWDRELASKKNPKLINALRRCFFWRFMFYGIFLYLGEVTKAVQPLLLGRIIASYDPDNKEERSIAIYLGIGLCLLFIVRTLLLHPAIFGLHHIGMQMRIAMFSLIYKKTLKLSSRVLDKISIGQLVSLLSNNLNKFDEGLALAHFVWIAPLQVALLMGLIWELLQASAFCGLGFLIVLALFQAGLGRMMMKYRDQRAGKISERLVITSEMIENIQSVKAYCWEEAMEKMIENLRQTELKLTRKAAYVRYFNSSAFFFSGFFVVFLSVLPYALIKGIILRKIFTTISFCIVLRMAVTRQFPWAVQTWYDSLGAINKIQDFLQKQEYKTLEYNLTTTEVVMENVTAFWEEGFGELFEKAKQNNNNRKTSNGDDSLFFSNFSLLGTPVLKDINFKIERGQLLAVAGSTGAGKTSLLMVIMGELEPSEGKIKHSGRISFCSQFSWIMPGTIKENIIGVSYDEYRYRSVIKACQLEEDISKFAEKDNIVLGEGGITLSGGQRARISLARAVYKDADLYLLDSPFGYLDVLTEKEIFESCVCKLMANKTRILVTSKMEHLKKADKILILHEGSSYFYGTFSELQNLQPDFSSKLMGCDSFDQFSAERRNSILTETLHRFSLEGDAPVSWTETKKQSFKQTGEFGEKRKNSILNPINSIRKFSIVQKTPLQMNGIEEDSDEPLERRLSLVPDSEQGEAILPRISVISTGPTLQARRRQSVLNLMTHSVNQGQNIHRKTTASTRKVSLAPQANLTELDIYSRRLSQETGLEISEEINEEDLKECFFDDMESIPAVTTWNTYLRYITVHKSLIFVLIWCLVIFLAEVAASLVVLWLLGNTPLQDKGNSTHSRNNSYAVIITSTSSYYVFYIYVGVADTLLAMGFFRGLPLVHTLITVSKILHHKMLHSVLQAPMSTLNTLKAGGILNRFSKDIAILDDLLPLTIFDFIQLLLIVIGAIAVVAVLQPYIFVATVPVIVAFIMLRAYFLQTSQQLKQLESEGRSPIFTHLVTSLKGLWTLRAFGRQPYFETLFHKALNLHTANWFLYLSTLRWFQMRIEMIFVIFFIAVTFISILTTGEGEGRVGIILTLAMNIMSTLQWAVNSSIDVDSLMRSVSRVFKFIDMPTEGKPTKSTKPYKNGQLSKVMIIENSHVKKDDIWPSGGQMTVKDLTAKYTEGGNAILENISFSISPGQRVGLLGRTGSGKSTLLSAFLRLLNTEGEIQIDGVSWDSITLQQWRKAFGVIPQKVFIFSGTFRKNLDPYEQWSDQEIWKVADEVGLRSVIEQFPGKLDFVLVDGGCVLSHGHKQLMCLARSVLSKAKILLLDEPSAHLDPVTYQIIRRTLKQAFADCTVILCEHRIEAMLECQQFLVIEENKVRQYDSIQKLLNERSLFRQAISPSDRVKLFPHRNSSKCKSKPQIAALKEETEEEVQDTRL

Row | SMILES | EC50 [µM]
1 | CC(=O)N1CCCCCC(O)(C(F)(F)F)C2=NN=C(O2)c2nc(c(C(F)(F)F)cc2N)C1 (single isomer, unassigned) [Compound 20, 1-[17-amino-6-hydroxy-6,15-bis(trifluoromethyl)-19-oxa-3,4,12,18-tetrazatricyclo[12.3.1.12,5]nonadeca-1(18),2,4,14,16-pentaen-12-yl]ethanone] | < 0.5
2 | CC(=O)N1CCCCCC(O)(C(F)(F)F)C2=NN=C(O2)c2nc(c(C(F)(F)F)cc2N)C1 (single isomer, unassigned) [Compound 21, 1-[17-amino-6-hydroxy-6,15-bis(trifluoromethyl)-19-oxa-3,4,12,18-tetrazatricyclo[12.3.1.12,5]nonadeca-1(18),2,4,14,16-pentaen-12-yl]ethanone] | > 1
3 | Nc1cc(C(F)(F)F)c2nc1-c1nnc(o1)C(O)(C(F)(F)F)CCCCCN(C(=O)C1CCC1)C2 (single isomer, unassigned) [Compound 22, [17-amino-6-hydroxy-6,15-bis(trifluoromethyl)-19-oxa-3,4,12,18-tetrazatricyclo[12.3.1.12,5]nonadeca-1(18),2,4,14,16-pentaen-12-yl]-cyclobutyl-methanone] | < 0.5
4 | Nc1cc(C(F)(F)F)c2nc1-c1nnc(o1)C(O)(C(F)(F)F)CCCCCN(C(=O)C1CCC1)C2 (single isomer, unassigned) [Compound 23, [17-amino-6-hydroxy-6,15-bis(trifluoromethyl)-19-oxa-3,4,12,18-tetrazatricyclo[12.3.1.12,5]nonadeca-1(18),2,4,14,16-pentaen-12-yl]-cyclobutyl-methanone] | > 1
5 | Nc1cc(C(F)(F)F)c2nc1-c1nnc(o1)C(O)(C(F)(F)F)CCCCCCC2(O)C(F)(F)F (single isomer, unassigned) [Compound 25, 17-amino-6,13,15-tris(trifluoromethyl)-19-oxa-3,4,18-triazatricyclo[12.3.1.12,5]nonadeca-1(18),2,4,14,16-pentaene-6,13-diol] | > 1
6 | Nc1cc(C(F)(F)F)c2nc1-c1nnc(o1)C(O)(C(F)(F)F)CCCCCCC2(O)C(F)(F)F (single isomer, unassigned) [Compound 26, 17-amino-6,13,15-tris(trifluoromethyl)-19-oxa-3,4,18-triazatricyclo[12.3.1.12,5]nonadeca-1(18),2,4,14,16-pentaene-6,13-diol] | < 0.5
7 | Nc1cc(C(F)(F)F)c2nc1-c1nnc(o1)C(O)(C(F)(F)F)CCCCCCC2(O)C(F)(F)F (single isomer, unassigned) [Compound 27, 17-amino-6,13,15-tris(trifluoromethyl)-19-oxa-3,4,18-triazatricyclo[12.3.1.12,5]nonadeca-1(18),2,4,14,16-pentaene-6,13-diol] | < 0.5
8 | Nc1cc(C(F)(F)F)c2nc1-c1nnc(o1)C(O)(C(F)(F)F)CCCCCCC2(O)C(F)(F)F (single isomer, unassigned) [Compound 28, 17-amino-6,13,15-tris(trifluoromethyl)-19-oxa-3,4,18-triazatricyclo[12.3.1.12,5]nonadeca-1(18),2,4,14,16-pentaene-6,13-diol] | > 1
9 | CC(C)(C)ON=C1CCCCCC[C@](O)(C(F)(F)F)C2=NN=C(O2)c2nc1c(C(F)(F)F)cc2N (single isomer, unassigned) [Compound 29] | < 0.5
10 | CC(C)(C)ON=C1CCCCCC[C@](O)(C(F)(F)F)C2=NN=C(O2)c2nc1c(C(F)(F)F)cc2N (single isomer, unassigned) [Compound 30] | < 0.5
11 | Nc1cc(C(F)(F)F)c2nc1-c1nnc(o1)[C@@](O)(C(F)(F)F)CCCCCCC2=NO (single isomer, unassigned) [Compound 31] | < 0.5
12 | Nc1cc(C(F)(F)F)c2nc1-c1nnc(o1)C(O)(C(F)(F)F)CCCCCCC1=NN=C2O1 (single isomer, unassigned) [Compound 32, 20-amino-6,18-bis(trifluoromethyl)-22,23-dioxa-3,4,14,15,21-pentaazatetracyclo[15.3.1.12,5.113,16]tricosa-1(21),2,4,13,15,17,19-heptaen-6-ol] | < 0.5
13 | Nc1cc(C(F)(F)F)c2nc1-c1nnc(o1)C(O)(C(F)(F)F)CCCCCCC1=NN=C2O1 (single isomer, unassigned) [Compound 33, 20-amino-6,18-bis(trifluoromethyl)-22,23-dioxa-3,4,14,15,21-pentaazatetracyclo[15.3.1.12,5.113,16]tricosa-1(21),2,4,13,15,17,19-heptaen-6-ol] | > 1
14 | Nc1cc(C(F)(F)F)c2nc1-c1nnc(o1)C(O)(C(F)(F)F)CCC(=O)CCCC2=O (single isomer, unassigned) [Compound 34, 17-amino-6-hydroxy-6,15-bis(trifluoromethyl)-19-oxa-3,4,18-triazatricyclo[12.3.1.12,5]nonadeca-1(18),2,4,14,16-pentaene-9,13-dione] | < 0.5
15 | Nc1cc(C(F)(F)F)c2nc1-c1nnc(o1)C(O)(C(F)(F)F)CCC(=O)CCCC2=O (single isomer, unassigned) [Compound 35, 17-amino-6-hydroxy-6,15-bis(trifluoromethyl)-19-oxa-3,4,18-triazatricyclo[12.3.1.12,5]nonadeca-1(18),2,4,14,16-pentaene-9,13-dione] | > 1
16 | Nc1cc(C(F)(F)F)c2nc1-c1nnc(o1)C(O)(C(F)(F)F)CCCC(=O)CCC2=O (single isomer, unassigned) [Compound 36, 17-amino-6-hydroxy-6,15-bis(trifluoromethyl)-19-oxa-3,4,18-triazatricyclo[12.3.1.12,5]nonadeca-1(18),2,4,14,16-pentaene-10,13-dione] | > 1
17 | Nc1cc(C(F)(F)F)c2nc1-c1nnc(o1)C(O)(C(F)(F)F)CCCC(=O)CCC2=O (single isomer, unassigned) [Compound 37, 17-amino-6-hydroxy-6,15-bis(trifluoromethyl)-19-oxa-3,4,18-triazatricyclo[12.3.1.12,5]nonadeca-1(18),2,4,14,16-pentaene-10,13-dione] | > 1
18 | CC1CCCCC[C@](O)(C(F)(F)F)C2=NN=C(O2)c2nc(c(C(F)(F)F)cc2N)C1 (single isomer, unassigned) [Compound 55] | < 0.5
19 | CC1CCCCC[C@](O)(C(F)(F)F)C2=NN=C(O2)c2nc(c(C(F)(F)F)cc2N)C1 (single isomer, unassigned) [Compound 56] | < 0.5
20 | Nc1cc(C(F)(F)F)c2nc1-c1nnc(o1)C(O)(C(F)(F)F)c1cc(ccc1F)CCCCC2=O (single isomer, unassigned) [Compound 57, 20-amino-8-fluoro-6-hydroxy-6,18-bis(trifluoromethyl)-23-oxa-3,4,21-triazatetracyclo[15.3.1.12,5.17,11]tricosa-1(21),2,4,7(22),8,10,17,19-octaen-16-one] | < 0.5
21 | Nc1cc(C(F)(F)F)c2nc1-c1nnc(o1)C(O)(C(F)(F)F)c1cc(ccc1F)CCCCC2=O (single isomer, unassigned) [Compound 58, 20-amino-8-fluoro-6-hydroxy-6,18-bis(trifluoromethyl)-23-oxa-3,4,21-triazatetracyclo[15.3.1.12,5.17,11]tricosa-1(21),2,4,7(22),8,10,17,19-octaen-16-one] | 0.5 to 1
22 | Nc1cc(C(F)(F)F)c2nc1-c1nnc(o1)C(O)(C(F)(F)F)c1cc(ccc1F)C=CCCC2=O (single isomer, unassigned) [Compound 59, 20-amino-8-fluoro-6-hydroxy-6,18-bis(trifluoromethyl)-23-oxa-3,4,21-triazatetracyclo[15.3.1.12,5.17,11]tricosa-1(21),2,4,7(22),8,10,12,17,19-nonaen-16-one] | > 1
23 | Nc1cc(C(F)(F)F)c2nc1-c1nnc(o1)C(O)(C(F)(F)F)c1cc(ccc1F)C=CCCC2=O (single isomer, unassigned) [Compound 60, 20-amino-8-fluoro-6-hydroxy-6,18-bis(trifluoromethyl)-23-oxa-3,4,21-triazatetracyclo[15.3.1.12,5.17,11]tricosa-1(21),2,4,7(22),8,10,12,17,19-nonaen-16-one] | < 0.5
